What was measured:
Assay type in all cases: in vivo
ApoE knockout mice [1] = assay: Cross-sectional area of the plaques in aortic sinus, Victoria blue-hematoxylin and eosin staining; conditions: male ApoE knockout mice, 100 mg/kg orally twice a day for 12 weeks, mean±standard error, control group 0.23±0.03
Protocol: (§1) Home breeding male ApoE knockout mice, (C57BL/6J-ApoE<tmlUnc>, Jackson Labo™) were bred under common condition, 8 weeks old, were used for test.
(§2) The compound 1 (Example 32, WO98/54153) and control drug, CI-1011 (Example 5, WO 94/26702), were synthesized according to methods described in each publication. The compound 1 and CI-1011 were dissolved (the compound 1) or suspended (CI-1011) in aqueous solution of 0.5% methylcellulose (MC). The solution or suspension was prepared to be a dose of 100 mg/kg and a volume for administration of 0.1 mL/10 g body weight. The control group (no drug administered group) received the solvent, aqueous solution of 0.5% methylcellulose (MC). […]
(§3) After collecting the blood, animals were undergone thoracotomy and 20-G injection needle was punctured into the cardiac apex. […] Using the specimens of Victoria blue-hematoxylin and eosin staining, the internal elastic layer was specified by observation of optical microscope, and the cross-sectional area of the plaques was analyzed (Win ROOF, Mitsuya Shoji K.K.). Similarly, the area of macrophages was measured by using the specimens of macrophage immunohistochemical staining, and a ratio in total area of the plaques (the occupancy rate of macrophages) was calculated. […]

ApoE knockout mice [2] = assay: Sirius Red staining of collagen in aortic sinus plaques; conditions: male ApoE knockout mice, 100 mg/kg orally twice a day for 12 weeks; compared with control group
Protocol: as §1, §2, §3

ApoE knockout mice [3] = assay: Macrophage immunohistochemical staining (anti-CD11b antibody) of aortic sinus plaques; conditions: male ApoE knockout mice, 100 mg/kg orally twice a day for 12 weeks; compared with control group
Protocol: as §1, §2, §3

ApoE knockout mice [4] = assay: Azan staining of aortic sinus plaques; conditions: male ApoE knockout mice, 100 mg/kg orally twice a day for 12 weeks; compared with control group
Protocol: as §1, §2, §3

ApoE knockout mice [5] = assay: Plasma total cholesterol level in ApoE knockout mice with primary hyperlipidemia; conditions: male ApoE knockout mice, 100 mg/kg orally twice a day for 12 weeks; mean±standard error; control group 641.8±23.0
Protocol: as §1
The compound 1 (Example 32, WO98/54153) and control drug, CI-1011 (Example 5, WO 94/26702), were synthesized according to methods described in each publication. The compound 1 and CI-1011 were dissolved (the compound 1) or suspended (CI-1011) in aqueous solution of 0.5% methylcellulose (MC). The solution or suspension was prepared to be a dose of 100 mg/kg and a volume for administration of 0.1 mL/10 g body weight. The control group (no drug administered group) received the solvent, aqueous solution of 0.5% methylcellulose (MC). Prepared drug solution and suspension were administered twice a day, orally, for continuing to 12 weeks (up to 20 weeks old) (total 3 groups, each 15 animal).
After ending the final administration, mice were fasted. In the next morning, mice were laparotomized under pentobarbital sodium anesthesia to expose abdominal vein and collected blood sample 1 mL. The collected blood was centrifuged at 3000 rpm for 15 minutes to collect the plasma. Plasma total cholesterol level was assayed by using cholesterol E-test Wako (cholesterol oxidase DAOS method).
Obtained results are shown in mean±standard error. Test of significance between the control group and the drug-administered group is performed by Dunnett's test.

Structure (SMILES)	cross-sectional area of the plaques (ApoE knockout mice [1]) [mm^2]	Sirius Red staining, collagen fibers (observation) (ApoE knockout mice [2])	macrophage immunohistochemical staining (observation) (ApoE knockout mice [3])	Azan staining, composition of the plaques (observation) (ApoE knockout mice [4])	plasma total cholesterol level (ApoE knockout mice [5]) [mg/dL]
CC(C)c1cc(C(C)C)c(CC(=O)NS(=O)(=O)Oc2c(C(C)C)cccc2C(C)C)c(C(C)C)c1 [CI-1011, avasimibe]	0.09±0.01	smaller numbers of collagen fibers were observed as compared with the control group	the macrophages were observed abundantly in whole plaques	the plaques consisted largely of red stained macrophage and the blue stained extracellular matrix was scanty	360.3 ± 19.4
CSc1cc(C)nc(SC)c1NC(=O)CN1CCN(CCSc2nc3ccccc3[nH]2)CC1 [compound 1, 2-[4-[2-(benzimidazol-2-ylthio)ethyl]piperazin-1-yl]-N-[2,4-bis(methylthio)-6-methyl-3-pyridyl]acetamide]	0.22±0.03	compactly arranged collagen fibers were observed in whole plaques	the macrophages were occasionally observed	the plaques consisted of small area of cellular components and large numbers of surrounding extracellular matrix	535.0 ± 22.8

— patent US20110015206A1, “METHOD OF STABILIZING LIPID-RICH PLAQUE AND METHOD OF PREVENTING RUPTURE THEREOF” (KOWA CO., LTD., priority 2003, published 2011)
